PMC9374667 (Communications Biology, 2022)
Where “and” joins values, the source holds several entries; their conditions need not be identical. Equal entries are not always repeated.

Assays:
Assay type in all cases: in vivo, mice
[1] = test system: TNF-α, IL-6, MCP-1, F4/80 (Adgre1), CD11c (Itgax); test: qRT-PCR of inflammatory related genes and macrophage marker genes in eWAT; set-up: key to Tnf-α / IL-6 / Ccl2 / Adgre1 / Itgax: relative expression normalized to gapdh, 2^-ΔΔCt method
Excerpt: Total RNA was isolated from 3T3-L1 cells and adipose tissue homogenates using Trizol reagent (Invitrogen, Carlsbad, CA, USA). RNA concentration and purity were examined at 260/280 nm using a nanodrop spectrophotometer (NanoDrop One, Thermo Fisher Scientific, USA). The total RNA was reverse transcribed to cDNA using the EasyScript All-in-One First-Strand cDNA Synthesis SuperMix for qPCR kit (TransGen Biotech, Beijing, China). The quantitative reverse transcription polymerase chain reaction was performed using TransStart Top Green qPCR SuperMix (TransGen Biotech, Beijing, China) and an Applied Biosystems 7500 RealTime PCR System (Life Technologies, USA). Relative expression levels were normalized to gapdh expression and quantified using the 2^-ΔΔCt method. The primers were synthesized by Shanghai Sangon Biotech, and the detailed primer sequences were shown in Supplementary Table 5 in the supplementary materials.

[2] = biological target: T1, IKKε (Mus musculus, UniProt Q9R0T8); test: IKKε activity assay in eWAT; set-up: The adipose tissue was ultrasound-crushed in PBS buffer solution (1:9 w/v) to prepare the tissue homogenate; from tissue; host or cells: epididymal white adipose tissue (eWAT) and brown adipose tissue (BAT) of C57BLKS WT and db/db mice; conditions: for the expression of IKKε in eWAT of db/db mice: Figure 6b, individual values
T1 sequence (Q9R0T8 1-717): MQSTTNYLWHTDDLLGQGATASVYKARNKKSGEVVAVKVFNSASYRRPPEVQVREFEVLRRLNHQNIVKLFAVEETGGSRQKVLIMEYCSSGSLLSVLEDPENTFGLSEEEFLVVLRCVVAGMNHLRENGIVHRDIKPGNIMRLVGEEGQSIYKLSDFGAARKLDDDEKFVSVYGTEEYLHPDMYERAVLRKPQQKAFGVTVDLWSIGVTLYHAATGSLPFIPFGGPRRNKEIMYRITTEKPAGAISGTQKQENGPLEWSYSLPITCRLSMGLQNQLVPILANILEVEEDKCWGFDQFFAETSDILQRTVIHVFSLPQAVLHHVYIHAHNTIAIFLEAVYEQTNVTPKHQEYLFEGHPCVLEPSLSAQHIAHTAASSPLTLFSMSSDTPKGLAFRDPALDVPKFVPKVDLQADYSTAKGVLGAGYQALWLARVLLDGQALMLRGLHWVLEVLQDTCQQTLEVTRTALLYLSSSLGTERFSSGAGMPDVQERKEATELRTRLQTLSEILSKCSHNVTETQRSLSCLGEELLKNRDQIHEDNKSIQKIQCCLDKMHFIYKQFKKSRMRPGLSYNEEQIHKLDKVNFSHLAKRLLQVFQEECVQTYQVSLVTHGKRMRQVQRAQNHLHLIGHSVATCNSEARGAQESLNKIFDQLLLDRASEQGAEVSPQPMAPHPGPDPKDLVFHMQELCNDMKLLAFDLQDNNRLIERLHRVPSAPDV
Protocol: (§1) The adipose tissue was ultrasound-crushed in PBS buffer solution (1:9 w/v) to prepare the tissue homogenate. The tissue homogenate was centrifuged at 5000 × g for 10 min, and the supernatant was taken for detection. Briefly, samples or standards were added to the microplates pre-coated with IKKε antibody or TBK1 antibody. Then horseradish peroxidase (HRP) labeled antibody was added and incubated at 37 °C for 60 min. After thorough washing, the 3,3′,5,5′-tetramethylbenzidine (TMB) substrate was used for color development, and the absorbance (OD value) was determined at 450 nm.

[3] = biological target: T2, TBK1 (Mus musculus, UniProt Q9WUN2); test: TBK1 activity assay in eWAT; set-up: The adipose tissue was ultrasound-crushed in PBS buffer solution (1:9 w/v) to prepare the tissue homogenate; from tissue; host or cells: epididymal white adipose tissue (eWAT) and brown adipose tissue (BAT) of C57BLKS WT and db/db mice; conditions: for the expression of TBK1 in eWAT of db/db mice: Figure 6c, individual values
T2 sequence (Q9WUN2 1-729): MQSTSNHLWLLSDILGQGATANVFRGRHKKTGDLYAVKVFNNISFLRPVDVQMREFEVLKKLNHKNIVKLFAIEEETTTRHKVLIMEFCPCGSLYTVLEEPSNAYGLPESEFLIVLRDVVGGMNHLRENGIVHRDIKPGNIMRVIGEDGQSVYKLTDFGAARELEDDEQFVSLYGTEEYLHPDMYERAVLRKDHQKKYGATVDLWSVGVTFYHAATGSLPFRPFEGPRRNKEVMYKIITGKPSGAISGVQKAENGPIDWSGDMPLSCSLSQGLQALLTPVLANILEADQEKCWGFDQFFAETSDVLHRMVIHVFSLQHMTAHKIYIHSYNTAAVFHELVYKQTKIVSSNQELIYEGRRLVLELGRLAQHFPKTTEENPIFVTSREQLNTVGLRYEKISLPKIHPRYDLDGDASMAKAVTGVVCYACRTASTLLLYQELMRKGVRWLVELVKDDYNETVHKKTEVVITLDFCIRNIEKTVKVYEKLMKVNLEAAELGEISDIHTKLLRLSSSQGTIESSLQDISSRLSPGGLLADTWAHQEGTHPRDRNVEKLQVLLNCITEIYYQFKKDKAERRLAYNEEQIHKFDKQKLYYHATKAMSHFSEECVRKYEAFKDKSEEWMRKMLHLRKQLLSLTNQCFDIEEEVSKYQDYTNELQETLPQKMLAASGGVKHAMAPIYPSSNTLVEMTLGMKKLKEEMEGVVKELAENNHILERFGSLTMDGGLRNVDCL
Protocol: as §1

[4] = Figure 5g, BBR 150mg/kg, replicates, first Veh value = 1
[5] = db/db mice, both doses of BJ (75 and 150 mg/kg)

COc1ccc2cc3[n+](cc2c1OC)CCc1cc2c(cc1-3)OCO2 [BBR, Berberine chloride dihydrate]
Adgre1 [1, 4]: 0.3 and 0.2426 and 0.368
Ccl2 [1, 4]: 0.8769 and 0.7967 and 0.7737
IL-6 [1, 4]: 0.5766 and 0.5775 and 0.5396
Itgax [1, 4]: 0.806 and 0.855 and 0.8182
Tnf-α [1, 4]: 0.6975 and 0.7551 and 0.7391
mRNA levels of TNF-α, IL-6, MCP-1, F4/80 (Adgre1) and CD11c (Itgax) in eWAT ([1]; db/db mice, 5 weeks of treatment, vs vehicle): reduced the mRNA levels

CC(C)Cc1ccc(C(C)C(=O)[O-])cc1.COc1ccc2cc3[n+](cc2c1OC)CCc1cc2c(cc1-3)OCO2.O.O.O.O [BJ, berberine-ibuprofen]
the expression of IKKε in eWAT of db/db mice ([2]; db/db+BJ 75mg/kg): 0.731 U/g and 0.653 U/g and 0.634 U/g and 0.668 U/g and 0.673 U/g and 0.708 U/g
the expression of IKKε in eWAT of db/db mice ([2]; db/db+BJ 150mg/kg): 0.443 U/g and 0.517 U/g and 0.416 U/g and 0.438 U/g and 0.466 U/g and 0.49 U/g
IKKε kinase activity in eWAT [2, 5]: significantly reduced
the expression of TBK1 in eWAT of db/db mice ([3]; db/db+BJ 75mg/kg): 0.538 U/g and 0.576 U/g and 0.532 U/g and 0.587 U/g and 0.53 U/g
the expression of TBK1 in eWAT of db/db mice ([3]; db/db+BJ 150mg/kg): 0.413 U/g and 0.391 U/g and 0.35 U/g and 0.361 U/g and 0.451 U/g and 0.379 U/g
TBK1 kinase activity in eWAT [3, 5]: significantly reduced
